According to the NIST ThermoML archive (doi:10.1021/je800224k):
Numbers after ± are expanded uncertainties.

Conditions: Liquid, Bellows volumetry

With `CCCCCCn1cc[n+](C)c1.F[B-](F)(F)F` [1-hexyl-3-methylimidazolium tetrafluoroborate] the mass density (393 K, 90000 kPa) was 1128 ± 3 kg/m3, the mass density (393 K, 100000 kPa) was 1133 ± 3 kg/m3 and the mass density (393 K, 110000 kPa) was 1137 ± 3 kg/m3. For the same molecule, the mass density (393 K, 120000 kPa) was 1141 ± 3 kg/m3, the mass density (393 K, 130000 kPa) was 1145 ± 3 kg/m3 and the mass density (393 K, 140000 kPa) was 1149 ± 3 kg/m3. The mass density (393 K, 150000 kPa) was 1153 ± 3 kg/m3, the mass density (393 K, 160000 kPa) was 1157 ± 3 kg/m3 and the mass density (393 K, 170000 kPa) was 1160 ± 3 kg/m3. The mass density (393 K, 180000 kPa) was 1164 ± 3 kg/m3, the mass density (393 K, 190000 kPa) was 1167 ± 3 kg/m3 and the mass density (393 K, 200000 kPa) was 1171 ± 3 kg/m3. For the same molecule, the mass density (413 K, 10000 kPa) was 1074 ± 3 kg/m3, the mass density (413 K, 20000 kPa) was 1080 ± 3 kg/m3 and the mass density (413 K, 30000 kPa) was 1086 ± 3 kg/m3. It also gave a mass density (413 K, 40000 kPa) of 1092 ± 3 kg/m3, a mass density (413 K, 50000 kPa) of 1098 ± 3 kg/m3 and a mass density (413 K, 60000 kPa) of 1103 ± 3 kg/m3. The mass density (413 K, 70000 kPa) was 1108 ± 3 kg/m3, the mass density (413 K, 80000 kPa) was 1113 ± 3 kg/m3 and the mass density (413 K, 90000 kPa) was 1118 ± 3 kg/m3. It also gave a mass density (413 K, 100000 kPa) of 1122 ± 3 kg/m3, a mass density (413 K, 110000 kPa) of 1126 ± 3 kg/m3 and a mass density (413 K, 120000 kPa) of 1131 ± 3 kg/m3. It also gave a mass density (413 K, 130000 kPa) of 1135 ± 3 kg/m3, a mass density (413 K, 140000 kPa) of 1139 ± 3 kg/m3 and a mass density (413 K, 150000 kPa) of 1143 ± 3 kg/m3. The mass density (413 K, 160000 kPa) was 1147 ± 3 kg/m3, the mass density (413 K, 170000 kPa) was 1150 ± 3 kg/m3 and the mass density (413 K, 180000 kPa) was 1154 ± 3 kg/m3. It also gave a mass density (413 K, 190000 kPa) of 1158 ± 3 kg/m3, a mass density (413 K, 200000 kPa) of 1161 ± 3 kg/m3 and a mass density (432.9 K, 10000 kPa) of 1062 ± 3 kg/m3. It also gave a mass density (432.9 K, 20000 kPa) of 1068 ± 3 kg/m3, a mass density (432.9 K, 30000 kPa) of 1075 ± 3 kg/m3 and a mass density (432.9 K, 40000 kPa) of 1081 ± 3 kg/m3. It also gave a mass density (432.9 K, 50000 kPa) of 1086 ± 3 kg/m3, a mass density (432.9 K, 60000 kPa) of 1092 ± 3 kg/m3 and a mass density (432.9 K, 70000 kPa) of 1097 ± 3 kg/m3. It also gave a mass density (432.9 K, 80000 kPa) of 1102 ± 3 kg/m3, a mass density (432.9 K, 90000 kPa) of 1107 ± 3 kg/m3 and a mass density (432.9 K, 100000 kPa) of 1112 ± 3 kg/m3. The mass density (432.9 K, 110000 kPa) was 1116 ± 3 kg/m3, the mass density (432.9 K, 120000 kPa) was 1121 ± 3 kg/m3 and the mass density (432.9 K, 130000 kPa) was 1125 ± 3 kg/m3. It also gave a mass density (432.9 K, 140000 kPa) of 1129 ± 3 kg/m3, a mass density (432.9 K, 150000 kPa) of 1133 ± 3 kg/m3 and a mass density (432.9 K, 160000 kPa) of 1137 ± 3 kg/m3. The mass density (432.9 K, 170000 kPa) was 1141 ± 3 kg/m3, the mass density (432.9 K, 180000 kPa) was 1145 ± 3 kg/m3 and the mass density (432.9 K, 190000 kPa) was 1148 ± 3 kg/m3. The mass density (432.9 K, 200000 kPa) was 1152 ± 3 kg/m3, the mass density (452.6 K, 10000 kPa) was 1049 ± 3 kg/m3 and the mass density (452.6 K, 20000 kPa) was 1056 ± 3 kg/m3. The mass density (452.6 K, 30000 kPa) was 1063 ± 3 kg/m3, the mass density (452.6 K, 40000 kPa) was 1069 ± 3 kg/m3 and the mass density (452.6 K, 50000 kPa) was 1075 ± 3 kg/m3. For the same molecule, the mass density (452.6 K, 60000 kPa) was 1081 ± 3 kg/m3, the mass density (452.6 K, 70000 kPa) was 1086 ± 3 kg/m3 and the mass density (452.6 K, 80000 kPa) was 1092 ± 3 kg/m3. The mass density (452.6 K, 90000 kPa) was 1097 ± 3 kg/m3, the mass density (452.6 K, 100000 kPa) was 1101 ± 3 kg/m3 and the mass density (452.6 K, 110000 kPa) was 1106 ± 3 kg/m3. The mass density (452.6 K, 120000 kPa) was 1111 ± 3 kg/m3, the mass density (452.6 K, 130000 kPa) was 1115 ± 3 kg/m3 and the mass density (452.6 K, 140000 kPa) was 1119 ± 3 kg/m3. For the same molecule, the mass density (452.6 K, 150000 kPa) was 1123 ± 3 kg/m3, the mass density (452.6 K, 160000 kPa) was 1128 ± 3 kg/m3 and the mass density (452.6 K, 170000 kPa) was 1131 ± 3 kg/m3. For the same molecule, the mass density (452.6 K, 180000 kPa) was 1135 ± 3 kg/m3, the mass density (452.6 K, 190000 kPa) was 1139 ± 3 kg/m3 and the mass density (452.6 K, 200000 kPa) was 1143 ± 3 kg/m3. The mass density (472.5 K, 10000 kPa) was 1037 ± 3 kg/m3, the mass density (472.5 K, 20000 kPa) was 1045 ± 3 kg/m3 and the mass density (472.5 K, 30000 kPa) was 1052 ± 3 kg/m3. It also gave a mass density (472.5 K, 40000 kPa) of 1058 ± 3 kg/m3, a mass density (472.5 K, 50000 kPa) of 1064 ± 3 kg/m3 and a mass density (472.5 K, 60000 kPa) of 1070 ± 3 kg/m3. It also gave a mass density (472.5 K, 70000 kPa) of 1076 ± 3 kg/m3, a mass density (472.5 K, 80000 kPa) of 1081 ± 3 kg/m3 and a mass density (472.5 K, 90000 kPa) of 1087 ± 3 kg/m3. For the same molecule, the mass density (472.5 K, 100000 kPa) was 1092 ± 3 kg/m3, the mass density (472.5 K, 110000 kPa) was 1096 ± 3 kg/m3 and the mass density (472.5 K, 120000 kPa) was 1101 ± 3 kg/m3. The mass density (472.5 K, 130000 kPa) was 1105 ± 3 kg/m3, the mass density (472.5 K, 140000 kPa) was 1110 ± 3 kg/m3 and the mass density (472.5 K, 150000 kPa) was 1114 ± 3 kg/m3. The mass density (472.5 K, 160000 kPa) was 1118 ± 3 kg/m3, the mass density (472.5 K, 170000 kPa) was 1122 ± 3 kg/m3 and the mass density (472.5 K, 180000 kPa) was 1126 ± 3 kg/m3. It also gave a mass density (472.5 K, 190000 kPa) of 1130 ± 3 kg/m3 and a mass density (472.5 K, 200000 kPa) of 1134 ± 3 kg/m3.
